# Article PMC3694633, “Functional evolution of scorpion venom peptides with an inhibitor cystine knot fold” (Bioscience Reports, 2013)
# Bridge positions count the residues as written; N and C are the ends. Ends that are not written are not given here. Peptide text beside a SMILES is read from it.
# B1: λ-MK1a (peptide)
# chain: GCNRLNKKCNSDADCCRYGERCISTGVNYYCRPDFGP-NH2
# modifications: disulfide (positions not given here); not fully specified (bridges); ends not checked; also: three disulfide bridges, pairing not given here
# Key:
# rKv1.1 = target: T1, rKv1.1 (Rattus norvegicus, UniProt P10499); assay: two-electrode voltage-clamp, rKv1.1 in Xenopus oocytes; format: cell-based
# T1 construct: expressed in transfected cells; host or cells: Xenopus oocytes injected with cRNA (clone in pGEM, T7 promoter)
# T1 sequence (P10499 whole entry): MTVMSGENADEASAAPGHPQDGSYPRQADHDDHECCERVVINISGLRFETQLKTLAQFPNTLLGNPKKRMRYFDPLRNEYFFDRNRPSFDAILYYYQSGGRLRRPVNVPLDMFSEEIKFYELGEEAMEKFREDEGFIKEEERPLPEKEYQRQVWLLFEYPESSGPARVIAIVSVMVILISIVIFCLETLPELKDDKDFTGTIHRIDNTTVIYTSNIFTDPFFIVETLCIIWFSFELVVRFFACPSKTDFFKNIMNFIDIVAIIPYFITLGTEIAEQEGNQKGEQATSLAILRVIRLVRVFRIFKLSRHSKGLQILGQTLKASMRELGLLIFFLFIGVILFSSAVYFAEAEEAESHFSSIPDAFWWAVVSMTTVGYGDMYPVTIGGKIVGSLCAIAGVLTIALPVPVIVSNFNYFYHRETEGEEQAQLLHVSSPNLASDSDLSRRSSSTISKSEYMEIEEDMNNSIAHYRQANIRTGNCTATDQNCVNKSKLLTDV
# Procedure: (§1) For the expression of Kv channels (rKv1.1–rKv1.4 and Shaker IR) and Nav channels (rNav1.1, rNav1.2, rNav1.4, rNav1.5 and mNav1.6) in Xenopus oocytes, the linearized plasmids were transcribed with the T7 or SP6 mMESSAGE-mMACHINE transcription kits (Supplementary Table S2, available at http://www.bioscirep.org/bsr/033/bsr033e047add.htm). Oocytes were digested for 1–2 h at room temperature in Ca^2+-free ND96 (in mM: NaCl, 96; KCl, 2; […]; MgCl2, 2 and Hepes, 5, adjusted to pH 7.4 with NaOH) containing 0.5 mg/ml collagenase (type I, sigma). Oocytes were injected with 0.5 ng of cRNA by NANOLITER 2000 (World Precision Instruments Inc.). The oocytes were incubated in ND96 solution supplemented with 50 mg/l gentamycin sulfate at 18°C.
# (§2) Ion channel currents were recorded 1–3 days after injection with Oocyte Clamp OC-725C (Warner Instument Corp.) and Digidata 1440A (Axon CNS, Molecular Devices) controlled by pCLAMP10 software (Axon). […] All data were recorded from at least three independent oocytes (n≥3) and are presented as mean±S.E.. […] Data were analysed by pCLAMP 10 (Molecular Devices) and SigmaPlot 10.0 (Systat Software).
# mice = details: intracerebroventricular inoculation; cited from earlier work
# Procedure: It has been reported that the lethality of MCa on mice after intracerebroventricular inoculation (LD50=20 μg/mouse); however, the molecular basis remains unsolved so far.
# [1] = target: T2, Drosophila Shaker channel (Shaker IR) (Drosophila melanogaster, UniProt P08510, DEL6-46); assay: two-electrode voltage-clamp, Shaker channel in Xenopus oocytes; format: cell-based; details: for activity on the Shaker channel after C-terminal modification: Figure 6 modified peptides at 10 μM, n=3, GP deletion: results not shown
# T2 construct: expressed in transfected cells; host or cells: Xenopus oocytes injected with cRNA (clone in pBluescript, T7 promoter)
# T2 sequence (P08510 with tags, fused parts or gaps DEL6-46): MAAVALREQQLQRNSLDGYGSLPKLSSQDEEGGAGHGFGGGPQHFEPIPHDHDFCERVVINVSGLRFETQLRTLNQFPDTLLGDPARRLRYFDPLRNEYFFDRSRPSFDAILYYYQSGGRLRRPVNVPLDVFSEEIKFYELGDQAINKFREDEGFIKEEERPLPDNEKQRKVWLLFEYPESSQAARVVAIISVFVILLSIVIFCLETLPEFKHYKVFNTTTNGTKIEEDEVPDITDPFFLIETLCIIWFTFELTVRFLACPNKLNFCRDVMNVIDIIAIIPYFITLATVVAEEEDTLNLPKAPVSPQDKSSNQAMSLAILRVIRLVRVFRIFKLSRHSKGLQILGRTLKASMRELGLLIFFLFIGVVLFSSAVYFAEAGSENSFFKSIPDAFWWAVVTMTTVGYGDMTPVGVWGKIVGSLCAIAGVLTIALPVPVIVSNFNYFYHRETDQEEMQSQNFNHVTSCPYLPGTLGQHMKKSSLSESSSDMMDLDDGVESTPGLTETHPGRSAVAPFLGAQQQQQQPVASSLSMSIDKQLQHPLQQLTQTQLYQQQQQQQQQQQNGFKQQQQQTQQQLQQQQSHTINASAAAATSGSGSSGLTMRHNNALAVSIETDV
# Procedure: as §1
# Ion channel currents were recorded 1–3 days after injection with Oocyte Clamp OC-725C (Warner Instument Corp.) and Digidata 1440A (Axon CNS, Molecular Devices) controlled by pCLAMP10 software (Axon). Pipettes were pulled by P-97 FLAMING/BROWN Micropipette Puller (Sutter Instrument Co.) with resistance of 0.1–1.0 MΩ when filled with 3 M KCl. rKv1.1–rKv1.4 and Shaker currents were evoked by 250 ms depolarization to 0 mV followed by a 250 ms pulse to −50 mV, from a holding potential of −90 mV. rNav1.1, 1.2, 1.4, 1.5 and mNav1.6 currents were evoked by 100 ms depolarization to −10 mV from a holding potential of −90 mV. All data were recorded from at least three independent oocytes (n≥3) and are presented as mean±S.E.. Leak subtraction was carried out with a P/4 protocol. Data were analysed by pCLAMP 10 (Molecular Devices) and SigmaPlot 10.0 (Systat Software).
# [2] = stability to non-enzymatic hydrolysis during oxidative refolding; format: physicochemical; details: 0.1 M Tris–HCl pH 8.0, 0.5 mM peptide, 25°C, 48 h; for chemical stability (non-enzymatic hydrolysis, Val35–Gly36 peptide bond): RP-HPLC / MALDI-TOF-MS
# Procedure: λ-MK1 and λ-MK1a in their reduced form were chemically synthesized by ChinaPeptides Co., Ltd. and Scilight-Peptide Inc., respectively. For oxidative refolding, peptide samples were dissolved in 0.1 M Tris–HCl buffer (pH 8.0) to a final concentration of 0.5 mM and incubated at 25°C for 48 h. Peptides were purified by RP-HPLC (reversed-phase HPLC). Purity and molecular masses of peptides were determined by MALDI-TOF-MS on a Kratos PC Axima CFR plus (Shimadzu Co. LTD).
# [3] = tested on: sarcoplasmic reticulum Ca^2+ release channels/ryanodine receptors of skeletal and cardiac muscles; details: cited from earlier work
# Description: The ICK fold is an exceptionally stable structural motif comprising an embedded ring formed by two disulfide bridges (Cys^1–Cys^4 and Cys^2–Cys^5) and their connecting backbone segments, which is threaded by a third disulfide bridge (Cys^3–Cys^6).
# Na^+ channel = tested on: Na^+ channel; design: method as in PMID 21665957; details: cited from earlier work
# [4] = tested on: apamin-sensitive SKCa channels; details: cited from earlier work
# Description: This is further strengthened by the evolutionary conservation of these two residues in all the members of λ-KTx subgroup. To further investigate the functional significance of this region, we carried out C-terminal amidation, a common post-translational modification for many toxins from venoms of scorpions, spiders and cone snails. The amidated peptide (named λ-MK1a) was oxi ...
# rKv1.2 = assay: two-electrode voltage-clamp, rKv1.2 in Xenopus oocytes; format: cell-based; details: 10 μM, 250 ms depolarization to 0 mV from −90 mV, mean±S.E. (n=3)
# Procedure: as §1, §2
# rKv1.3 = assay: two-electrode voltage-clamp, rKv1.3 in Xenopus oocytes; format: cell-based; details: 10 μM, 250 ms depolarization to 0 mV from −90 mV, mean±S.E. (n=3)
# Procedure: as §1, §2
# rKv1.4 = assay: two-electrode voltage-clamp, rKv1.4 in Xenopus oocytes; format: cell-based; details: 10 μM, 250 ms depolarization to 0 mV from −90 mV, mean±S.E. (n=3)
# Procedure: as §1, §2
# [5] = target: rKv1.1 (not stated (printed rKv1.1, called mammalian; r read as rat)) (UniProt P10499)
# rKv1.1 (not stated (printed rKv1.1, called mammalian; r read as rat)), sequence (P10499 whole entry): as the sequence (P10499 whole entry) above
# [6] = target: rKv1.2 (not stated (printed rKv1.1-rKv1.4, called mammalian; r read as rat)) (UniProt P63142)
# rKv1.2 (not stated (printed rKv1.1-rKv1.4, called mammalian; r read as rat)), sequence (P63142 whole entry): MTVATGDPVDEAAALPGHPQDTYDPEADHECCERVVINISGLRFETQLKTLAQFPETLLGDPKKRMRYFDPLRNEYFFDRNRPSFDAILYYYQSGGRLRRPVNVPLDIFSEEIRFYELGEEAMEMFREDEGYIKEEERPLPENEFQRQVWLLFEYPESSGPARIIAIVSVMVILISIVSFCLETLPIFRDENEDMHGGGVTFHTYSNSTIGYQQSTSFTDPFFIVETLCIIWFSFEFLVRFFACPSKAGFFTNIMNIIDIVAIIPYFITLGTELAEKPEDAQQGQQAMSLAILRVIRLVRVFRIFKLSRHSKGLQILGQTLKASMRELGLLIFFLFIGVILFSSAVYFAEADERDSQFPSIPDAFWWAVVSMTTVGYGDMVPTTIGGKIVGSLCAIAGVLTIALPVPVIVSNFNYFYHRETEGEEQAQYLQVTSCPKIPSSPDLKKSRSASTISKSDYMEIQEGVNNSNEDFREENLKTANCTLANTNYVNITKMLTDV
# [7] = target: rKv1.3 (not stated (printed rKv1.1-rKv1.4, called mammalian; r read as rat)) (UniProt P15384)
# rKv1.3 (not stated (printed rKv1.1-rKv1.4, called mammalian; r read as rat)), sequence (P15384 whole entry): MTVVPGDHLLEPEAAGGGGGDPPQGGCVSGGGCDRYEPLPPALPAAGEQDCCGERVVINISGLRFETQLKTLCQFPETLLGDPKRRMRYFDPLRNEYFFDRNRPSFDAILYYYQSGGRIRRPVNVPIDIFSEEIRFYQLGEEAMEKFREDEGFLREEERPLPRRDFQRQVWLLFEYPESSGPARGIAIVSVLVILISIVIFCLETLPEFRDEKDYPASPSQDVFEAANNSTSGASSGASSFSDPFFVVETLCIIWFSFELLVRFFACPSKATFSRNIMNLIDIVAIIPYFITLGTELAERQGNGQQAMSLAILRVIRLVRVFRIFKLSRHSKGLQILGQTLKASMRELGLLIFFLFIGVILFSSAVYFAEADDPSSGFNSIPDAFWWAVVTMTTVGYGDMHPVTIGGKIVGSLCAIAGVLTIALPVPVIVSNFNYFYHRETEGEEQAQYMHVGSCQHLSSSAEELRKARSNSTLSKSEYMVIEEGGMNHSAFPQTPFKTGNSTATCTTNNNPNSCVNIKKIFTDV
# [8] = target: rKv1.4 (not stated (printed rKv1.4, called mammalian; r read as rat)) (UniProt P15385)
# rKv1.4 (not stated (printed rKv1.4, called mammalian; r read as rat)), sequence (P15385 whole entry): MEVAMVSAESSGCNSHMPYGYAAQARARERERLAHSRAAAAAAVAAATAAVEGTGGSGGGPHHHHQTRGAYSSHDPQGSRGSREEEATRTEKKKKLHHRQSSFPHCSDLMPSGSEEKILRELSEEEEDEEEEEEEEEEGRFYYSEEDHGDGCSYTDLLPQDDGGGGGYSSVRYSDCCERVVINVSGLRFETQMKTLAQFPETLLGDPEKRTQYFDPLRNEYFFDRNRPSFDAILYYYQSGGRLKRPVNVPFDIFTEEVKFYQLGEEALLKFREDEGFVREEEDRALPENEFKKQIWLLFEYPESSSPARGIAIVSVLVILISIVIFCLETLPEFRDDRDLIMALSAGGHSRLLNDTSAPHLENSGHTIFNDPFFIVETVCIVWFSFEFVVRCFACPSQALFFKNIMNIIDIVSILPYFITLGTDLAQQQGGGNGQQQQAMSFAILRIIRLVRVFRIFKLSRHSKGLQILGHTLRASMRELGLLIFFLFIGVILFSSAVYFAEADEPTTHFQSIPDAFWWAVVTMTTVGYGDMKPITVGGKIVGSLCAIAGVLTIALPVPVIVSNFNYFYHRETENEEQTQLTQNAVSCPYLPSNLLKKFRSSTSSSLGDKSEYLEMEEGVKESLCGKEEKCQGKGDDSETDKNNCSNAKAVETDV
# [9] = target: rKv1.1 (not stated (printed rKv1.1, called mammalian; r read as rat)) (UniProt P10499); remark: listed apart in the source
# [10] = target: Drosophila Shaker K+ channel (Shaker IR) (Drosophila) (UniProt P08510)
# Drosophila Shaker K+ channel (Shaker IR) (Drosophila), sequence (P08510 whole entry): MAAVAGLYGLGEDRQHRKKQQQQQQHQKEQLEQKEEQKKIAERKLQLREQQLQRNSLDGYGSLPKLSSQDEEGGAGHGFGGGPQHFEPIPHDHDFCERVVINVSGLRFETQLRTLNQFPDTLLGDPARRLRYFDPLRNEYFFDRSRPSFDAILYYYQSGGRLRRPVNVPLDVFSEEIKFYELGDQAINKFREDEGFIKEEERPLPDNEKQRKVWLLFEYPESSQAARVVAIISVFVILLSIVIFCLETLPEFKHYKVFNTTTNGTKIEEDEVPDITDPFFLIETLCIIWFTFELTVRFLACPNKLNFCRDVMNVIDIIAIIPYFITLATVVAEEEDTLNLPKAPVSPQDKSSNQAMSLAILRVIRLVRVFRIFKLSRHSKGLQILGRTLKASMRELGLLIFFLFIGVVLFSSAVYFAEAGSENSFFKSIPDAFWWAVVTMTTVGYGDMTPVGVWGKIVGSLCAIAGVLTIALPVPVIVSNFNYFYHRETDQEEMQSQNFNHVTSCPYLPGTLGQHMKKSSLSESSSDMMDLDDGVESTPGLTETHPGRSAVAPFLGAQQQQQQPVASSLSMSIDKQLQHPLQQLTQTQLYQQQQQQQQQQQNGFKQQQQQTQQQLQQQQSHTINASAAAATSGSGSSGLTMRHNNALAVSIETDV
molecule,measurement,setting,value
"CC[C@H](C)[C@@H]1NC(=O)[C@H](CC(N)=O)NC(=O)[C@H]([C@@H](C)O)NC(=O)CNC(=O)[C@H](CCCNC(=N)N)NC(=O)[C@H](CCCNC(=N)N)NC(=O)[C@H](CCCCN)NC(=O)[C@@H]2CSSC[C@@H]3NC(=O)[C@H](CC(C)C)NC(=O)[C@H](CCCCN)NC(=O)[C@H](CC(C)C)NC(=O)[C@H](Cc4c[nH]cn4)NC(=O)[C@@H]4CCCN4C(=O)[C@H](CC(C)C)NC(=O)[C@@H](NC(=O)[C@H](CC(=O)O)NC(=O)CN)CSSC[C@H](NC(=O)[C@H](CSSC[C@@H](C(=O)N[C@@H](CCCNC(=N)N)C(=O)O)NC(=O)[C@H](CCCNC(=N)N)NC(=O)[C@H](CCCCN)NC(=O)[C@H](CCC(=O)O)NC1=O)NC(=O)[C@H](CC(=O)O)NC(=O)[C@H](CCCCN)NC(=O)[C@H](CC(N)=O)NC(=O)[C@H](CCC(=O)O)NC(=O)[C@H](CCCCN)NC3=O)C(=O)N[C@@H](CO)C(=O)N[C@@H](CCCCN)C(=O)N[C@@H](CCCCN)C(=O)N2 [MCa, reference compound] (H-GDCLPHLKLCKENKDCCSKKCKRRGTNIEKRCR-OH; disulfide 3-17, 10-21, 16-32)",IC50,"rKv1.1; dose-response, each point mean±S.E. (n=3), read-out: IC50, inhibition of rKv1.1 currents",21.9 ± 1.04 µM
same,LD50,mice,20 μg/mouse
"CC[C@H](C)[C@@H]1NC(=O)[C@@H]2CSSC[C@@H]3NC(=O)[C@H](CCCCN)NC(=O)[C@H](CCCCN)NC(=O)[C@H](CC(N)=O)NC(=O)[C@H](CC(C)C)NC(=O)[C@H](CCCNC(=N)N)NC(=O)[C@H](CC(N)=O)NC(=O)[C@@H](NC(=O)CN)CSSC[C@H](NC(=O)[C@H](CSSC[C@@H](C(=O)N[C@@H](CCCNC(=N)N)C(=O)N4CCC[C@H]4C(=O)N[C@@H](CC(=O)O)C(=O)N[C@H](C(=O)NCC(=O)N4CCC[C@H]4C(=O)O)C(C)C)NC(=O)[C@H](Cc4ccc(O)cc4)NC(=O)[C@H](Cc4ccc(O)cc4)NC(=O)[C@H](CC(N)=O)NC(=O)[C@H](C(C)C)NC(=O)CNC(=O)[C@H]([C@@H](C)O)NC(=O)[C@H](CO)NC1=O)NC(=O)[C@H](CC(=O)O)NC(=O)[C@H](C)NC(=O)[C@H](CC(=O)O)NC(=O)[C@H](CO)NC(=O)[C@H](CC(N)=O)NC3=O)C(=O)N[C@@H](CCCNC(=N)N)C(=O)N[C@@H](Cc1ccc(O)cc1)C(=O)NCC(=O)N[C@@H](CCC(=O)O)C(=O)N[C@@H](CCCNC(=N)N)C(=O)N2 [λ-MK1] (H-GCNRLNKKCNSDADCCRYGERCISTGVNYYCRPDVGP-OH; disulfide 2-16, 9-22, 15-31)",reduction of Shaker channel currents,"[1]; 10 μM, Xenopus oocytes, 250 ms depolarization to 0 mV from −90 mV, mean±S.E. (n=3)",44.7±10.2%
same,IC50,"[1]; dose-response fitted by Hill equation, each point mean±S.E. (n=3), read-out: peptide concentration at half-maximal efficacy (IC50), Shaker channel",12.3 ± 0.96 µM
same,"chemical stability (non-enzymatic hydrolysis, Val35–Gly36 peptide bond)",[2],instability of a peptide bond between Val^35 and Gly^36 in an alkaline environment
"imperatoxin A (GDCLPHLKRCKADNDCCGKKCKRRGTNAEKRCR; UniProt P59868 1-33, looked up)",activation of Ca2+ release channels/ryanodine receptors,[3],activators of sarcoplasmic reticulum Ca^2+ release channels/ryanodine receptors of skeletal and cardiac muscles
"jingzhaotoxin-III: tarantula toxin, an Na^+ channel blocker with an ICK fold (DGECGGFWWKCGRGKPPCCKGYACSKTWGWCAVEAP; also: ICK fold, disulfide pairing not given here; UniProt P62520 28-63, looked up)",Na+ channel block,Na^+ channel,Na^+ channel blocker
"leiurotoxin I: a scorpion α-KTx (AFCNLRMCQLSCRSLGLLGKCIGDKCECVKH; ends and bridges not checked; cysteine pairing not given here; UniProt P16341 1-31, looked up)",effect of C-terminal amidation on affinity for apamin-sensitive SKCa channels,[4],increase the affinity
"λ-MK1a: the amidated peptide of λ-MK1, three disulfide bridges (GCNRLNKKCNSDADCCRYGERCISTGVNYYCRPDFGP-NH2; disulfide (positions not given here))",activity on the Shaker channel after C-terminal modification,[1]; Xenopus oocytes,switched the target of λ-MK1 from the Shaker channel to mammalian Kv channels
same,activity on the Shaker channel after C-terminal modification,"[1]; Xenopus oocytes, listed as C-terminal amidation",loss of activity on the Shaker channel
same,current reduction of rKv1.1,"rKv1.1; 10 μM, 250 ms depolarization to 0 mV from −90 mV, mean±S.E. (n=3)",7.7±1.8%
same,current reduction of rKv1.2,rKv1.2,25.3±3.6%
same,current reduction of rKv1.3,rKv1.3,9.0±3.2%
same,current reduction of rKv1.4,rKv1.4,35.7±4.26%
same,"chemical stability (non-enzymatic hydrolysis, Val35–Gly36 peptide bond)",[2],completely inhibited the non-enzymatic hydrolysis of the peptide
same,refolding efficiency,"[2]; RP-HPLC, relative to λ-MK1",largely improved its refolding efficiency
B1,"reduction of rKv1.1 currents at 10 μM peptide, two-electrode voltage clamp in Xenopus oocytes",[5],7.7%
same,"reduction of rKv1.2 currents at 10 μM peptide, two-electrode voltage clamp in Xenopus oocytes",[6],25.3%
same,"reduction of rKv1.3 currents at 10 μM peptide, two-electrode voltage clamp in Xenopus oocytes",[7],9%
same,"reduction of rKv1.4 currents at 10 μM peptide, two-electrode voltage clamp in Xenopus oocytes",[8],35.7%
GDCLPHLKLCKENKDCCSKKCKRRGTNIEKRCR [maurocalcine],"IC50 of inhibition of rKv1.1 currents, dose-response, two-electrode voltage clamp in Xenopus oocytes",[9],21.9 µM
GCNRLNKKCNSDADCCRYGERCISTGVNYYCRPDFGP [λ-MeuKTx-1],"reduction of Shaker channel currents at 10 μM peptide, two-electrode voltage clamp in Xenopus oocytes",[10],44.7%
